Source: patent US3956328A, “S-triazolo(1,5-a)pyridine derivative” (Kyorin Seiyaku Kabushiki Kaisha, priority 1973, dated 1976)
Structures can show the parent of a compound that is named as a salt.

Legend:
[1] = test system: guinea pig ileum; experiment: Schultz-Dale reaction in guinea pig ileum sensitized actively with egg albumin; conditions: antigen egg albumin
Experimental: Male guinea pigs are actively sensitized and their ileum preparations are treated by Schultz-Dales method (J. Pharmacol. Exp. Ther., 4, 167, 1913). […] These preceeding pharmacological properties of the present compound are due to triazolo [1,5-a]pyridine.

[2] = Solubility and hygroscopicity of the salt; format: physicochemical
[3] = test system: heterologous PCA in guinea pigs; experiment: Heterologous passive cutaneous anaphylaxis (PCA) in guinea pigs; format: in vivo, guinea pig; conditions: 25 mg/kg po, 30 min. before challenge; rabbit antiserum to egg albumin
Experimental: Male guinea pigs are passively sensitized by the intradermal injection of rabbit antiserum to egg albumin and challenged by the intravenous injection of egg albumin 4 hrs. after the sensitization. The test compounds are orally given 30 min. before the challenge.

[4] = test system: guinea pig tracheal chain strips; experiment: Anti histaminic action: histamine-induced contraction of guinea pig tracheal chain strips; conditions: 4×10^^-5 M; Tyrodes solution
[5] = test system: BSA induced asthma in guinea pigs; experiment: Inhibitory action on BSA-induced (experimentally allergic) asthma attack in passively sensitized guinea pigs; format: in vivo, guinea pig; conditions: for p (statistical significance vs non treatment) / z1 (statistical value vs non treatment): severity; for z1 (statistical value vs non treatment): Mann and Whitney U test
Experimental: The present compound is studied on asthma attacks induced by the antigen-antibody reaction in guinea pigs. The guinea pigs are sensitized passively by the injection of 0.1 to 0.3 ml /100g body weight of rabbit antiserum to BSA (bovine serum albumin) into the ear vein. Forty six hours after passive sensitization, the guinea pigs are orally given the tested compounds. Two hours after oral administration, the asthma attack is provoked by an aerosol injection (0.1 ml/min.) of 1% BSA solution in physiological saline into the plastic chamber in which the testing guinea pig is placed. The symptoms of the asthma attack are observed for 10 minutes and scored on the following shock indices. The shock indices are examined by the shock grades, No. of collapsed guinea pigs/No. of used animals and survival rate.
The shock grades are as follows:
1 slight stimulation of expiration
2 stimulation of expiration (labored expiration)
3 attack of singultation
4 the strongest attack of collapse and struggle
but recovery from collapse within 5 minutes
5 recovery from collapse within 5 to 10 minutes
6 interruption of expiration to death within 10
*Statistical comparisons were carried out with the Mann and Whitneys' U
z1 : The statistical value between non treatment and each tested
z2 : The statistical value between the present compound and […]

[6] = test system: ddN mice; conditions: cited from earlier work
[7] = test system: histamine-induced asthma attack; experiment: Inhibitory action on histamine-induced asthma attack in guinea pigs; format: in vivo, guinea pig; conditions: for z1 (statistical value): Mann and Whitney U test
Experimental: Inhibitory actions on histamine-induced asthma attack: Male guinea pigs, of about 300 g body weight are used. Asthma attack is provoked by an aerosol of 0.2% histamine dihydrochloride solution in physiological saline for 10 minutes. The inhibitory actions are examined by shock grades, No. of collapsed guinea pigs/No. of provoked guinea pigs and survival rate. The tested compounds are orally given 2 hrs. prior to spraying of histamine solution.
A/B: No. of collapsed guinea pigs/ No. of provoked guinea pigs.
Statistical comparisons were carried out with the Mann and Whtineys' U

[8] = antiserum 0.1 ml/100 g, 0.5 mg/kg p.o.
[9] = antiserum 0.1 ml/100 g, 1.0 mg/kg p.o.
[10] = antiserum 0.1 ml/100 g, 5.0 mg/kg p.o.
[11] = antiserum 0.2 ml/100 g, 5 mg/kg p.o.
[12] = antiserum 0.3 ml/100 g, 5 mg/kg p.o.

For c1ccc(C(c2ccccc2)N2CCN(CCCc3nc4ccccn4n3)CC2)cc1 [the present compound HCl salt], the “Inhibition % of Schultz-Dale reaction” value ([1]; 2×10^^-7 M) was 32.2%, the “Inhibition % of Schultz-Dale reaction” value ([1]; 3×10^^-7 M) was 55.6% and the “Inhibition % of Schultz-Dale reaction” value ([1]; 5×10^^-7 M) was 60.1%.
With c1ccc(C(c2ccccc2)N2CCN(CCCc3nc4ccccn4n3)CC2)cc1 [dihydrochloride salt] the solubility in alcohols ([2]; alcohols) was “soluble”, the hygroscopicity ([2]; fine needles from ethanol-petroleum ether) was “hydroscopic” and the solubility in water ([2]; water) was “soluble”.
In the case of CN1CCCN(C(c2ccccc2)c2ccc(Cl)cc2)CC1 (stereo not drawn) [homochlorcyclizine, reference compound], the “Inhibition % of extravasation of blue dye” value [3] was 41.7%, the “inhibitory rate on histamine-induced contraction” value [4] was 74% and the “A/B: No. of collapsed / No. of provoked guinea pigs” value [5, 8] was 4/6. The “A/B: collapsed guinea pigs, percentage” value [5, 8] was 66.7%, the “Survival rate (animals)” value [5, 8] was 5/6 and the “Survival rate, percentage” value [5, 8] was 83.3%. The “A/B: No. of collapsed / No. of provoked guinea pigs” value [5, 9] was 6/10, the “A/B: collapsed guinea pigs, percentage” value [5, 9] was 60% and the “Survival rate (animals)” value [5, 9] was 10/10. For the same compound, the “Survival rate, percentage” value [5, 9] was 100%, the “A/B: No. of collapsed / No. of provoked guinea pigs” value [5, 10] was 1/6 and the “A/B: collapsed guinea pigs, percentage” value [5, 10] was 16.7%. For the same compound, the “Survival rate (animals)” value [5, 10] was 6/6, the “Survival rate, percentage” value [5, 10] was 100% and the “A/B: No. of collapsed / No. of provoked guinea pigs” value [5, 11] was 4/6. For the same compound, the “A/B: collapsed guinea pigs, percentage” value [5, 11] was 66.7%, the “Survival rate (animals)” value [5, 11] was 6/6 and the “Survival rate, percentage” value [5, 11] was 100%. For the same compound, the “A/B: No. of collapsed / No. of provoked guinea pigs” value [5, 12] was 1.5, the “A/B: collapsed guinea pigs, percentage” value [5, 12] was 20% and the “Survival rate (animals)” value [5, 12] was 5/5. For the same compound, the “Survival rate, percentage” value [5, 12] was 100%, the “p (statistical significance vs non treatment)” value [5, 8] was < 0.02 and the “z1 (statistical value vs non treatment)” value [5, 8] was 2.235. For the same compound, the “p (statistical significance vs non treatment)” value [5, 9] was < 0.001, the “z1 (statistical value vs non treatment)” value [5, 9] was 3.368 and the “p (statistical significance vs non treatment)” value [5, 10] was < 0.001. For the same compound, the “z1 (statistical value vs non treatment)” value [5, 10] was 3.576, the “p (statistical significance vs non treatment)” value [5, 11] was < 0.0001 and the “z1 (statistical value vs non treatment)” value [5, 11] was 3.993. For the same compound, the “p (statistical significance vs non treatment)” value [5, 12] was < 0.002, the “z1 (statistical value vs non treatment)” value [5, 12] was 3.23 and the “acute LD50 (reported for standard drug)” value [6] was 353 mg/kg. For the same compound, the “A/B: No. of collapsed / No. of provoked guinea pigs” value ([7]; 2.50 mg/kg p.o.) was 5/11, the “A/B: collapsed guinea pigs, number in parentheses (percentage)” value ([7]; 2.50 mg/kg p.o.) was 45.5 and the “Survival rate (animals)” value ([7]; 2.50 mg/kg p.o.) was 11/11. The “Survival rate, number in parentheses (percentage)” value ([7]; 2.50 mg/kg p.o.) was 100, the “z1 (statistical value)” value ([7]; 2.50 mg/kg p.o. vs non treatment 2 (so in the source)) was > 5 and the “significance of difference from non treatment 2 (so in the source)” value ([7]; 2.50 mg/kg p.o., homochlorcyclizine) was “markedly significant difference”. The “A/B: No. of collapsed / No. of provoked guinea pigs” value ([7]; 10.0 mg/kg p.o.) was 1/6, the “A/B: collapsed guinea pigs, number in parentheses (percentage)” value ([7]; 10.0 mg/kg p.o.) was 16.7 and the “Survival rate (animals)” value ([7]; 10.0 mg/kg p.o.) was 6/6. For the same compound, the “Survival rate, number in parentheses (percentage)” value ([7]; 10.0 mg/kg p.o.) was 100, the “z1 (statistical value)” value ([7]; 10.0 mg/kg p.o. vs non treatment 1 (so in the source)) was 3.315 and the “p (significant difference from non treatment 1)” value ([7]; 10.0 mg/kg p.o., homochlorcyclizine) was 0.0005.
